Assay: Antiproliferative activity against mouse +SA mammary epithelial cells after 4 days by MTT assay
Format: functional, cell-based
Details: Epithelial cell, 96 h

Structure (SMILES)	IC50 [µM]
CC(=O)[C@@H]1CC[C@]2(C(=O)O)CC[C@]3(C)[C@H](CC[C@@H]4[C@@]5(C)CC[C@H](O)C(C)(C)[C@@H]5CC[C@]43C)[C@@H]12 [PLATANIC ACID]	> 20
C=C(C)[C@@H]1CC[C@]2(C(=O)O)CC[C@]3(C)[C@H](CC[C@@H]4[C@@]5(C)CC[C@H](O)C(C)(C)[C@@H]5CC[C@]43C)[C@@H]12 [BETULINIC ACID]	> 20
C=C(C)[C@@H]1CC[C@]2(C=O)CC[C@]3(C)[C@H](CC[C@@H]4[C@@]5(C)CC[C@H](O)C(C)(C)[C@@H]5CC[C@]43C)[C@@H]12 [BETULINALDEHYDE]	19.4
C[C@H]1[C@H](C)CC[C@]2(C(=O)O)CC[C@]3(C)C(=CC[C@@H]4[C@@]5(C)C[C@@H](O)[C@H](O)[C@@](C)(CO)[C@@H]5CC[C@]43C)[C@H]12 [ASIATIC ACID]	> 20
C[C@H]1CO[C@]23CC[C@@H]1[C@@H]2[C@H]1CC[C@@H]2[C@@]4(C)CC[C@H](O)C(C)(C)[C@@H]4CC[C@@]2(C)[C@]1(C)CC3	18.1
C=C(C)[C@@H]1CC[C@]2(CO)CC[C@]3(C)[C@H](CC[C@@H]4[C@@]5(C)CC[C@H](O)C(C)(C)[C@@H]5CC[C@]43C)[C@@H]12 [BETULIN]	> 20
C=C(C)[C@@H]1CC[C@@]2(OO)CC[C@]3(C)[C@H](CC[C@@H]4[C@@]5(C)CC[C@H](O)C(C)(C)[C@@H]5CC[C@]43C)[C@@H]12	> 20
C=C(C)[C@@H]1CC[C@]2(OO)CC[C@]3(C)[C@H](CC[C@@H]4[C@@]5(C)CC[C@H](O)C(C)(C)[C@@H]5CC[C@]43C)[C@@H]12	15.5
C=C(C)[C@@H]1CC[C@]2(O)CC[C@]3(C)[C@H](CC[C@@H]4[C@@]5(C)CC[C@H](O)C(C)(C)[C@@H]5CC[C@]43C)[C@@H]12	18.7
C[C@H]1[C@H](C)CC[C@]2(C(=O)O)CC[C@]3(C)C(=CC[C@@H]4[C@@]5(C)CC[C@H](O)C(C)(C)[C@@H]5CC[C@]43C)[C@H]12 [URSOLIC ACID]	> 20

From ChEMBL document CHEMBL1140180, “Antiproliferative triterpenes from Melaleuca ericifolia” (J Nat Prod, 2008)
